From US9018370B2, “Derivatives of uridine phosphate and their uses in protein binding assays” (King's College London of Strand, priority 2009, dated 2015)
Values belong to the compound of their own block, whether it stands above or below them.

What was measured:
[1] = Quantum yield determination of nucleotide derivatives; assay type: physicochemical; conditions: for Quantum yield of reference compounds determined with this protocol: in H2O; for Q.Y.: in water
Experimental: Nucleotide derivatives were serially diluted in H2O (10, 20, 30, 40 and 50 μM for absorbance measurements, and 0.2, 0.4, 0.6, 0.8, 1 μM for fluorescence measurements), and UV absorbance and fluorescence emission (with λmax absorbance=λem fluorescence) were recorded for all samples. To determine quantum yields, for each absorbance and fluorescence spectrum the area under the curve (AUC) was calculated by numerical integration, applying the mid-point rule. For each compound, AUCabs and AUCem were then plotted over compound concentration according to AUCabs=A×[conc]+B and AUCem=A′×[conc]+B′. From these linear plots, the gradients A and A′ were extracted, and for each compound the specific quantum yield φs, under these experimental conditions, was calculated as the ratio A′/A. Quantum yields determined with this protocol for two reference compounds, 2-aminopyridine and L-tryptophan (2-aminopyridine: 0.60; L-tryptophan: 0.14) were in exact agreement with literature values. The quantum yields for reference compounds were used to calculate the general quantum yield φg for each nucleotide analogue, according to φg=φref×(A′/A)/(A′/A)ref.
Fluorescent uracil nucleosides and (sugar-)nucleotides can be obtained by connecting a known chromophore/fluorophore via an electronically nonconjugating linker to the natural uracil base (Sinkeldam et al. Chem. Rev. 2010, 110, 2579-2619). The photophysical features of the resulting nucleoside/(sugar-)nucleotide analogue are usually very similar to that of the parent fluorophore (Sinkeldam et al. Chem. Rev. 2010, 110, 2579-2619). In contrast, extending the uracil by electronically conjugating the base to additional aromatic moieties typically generates a new chromophore with unique, and somewhat unpredictable, photophysical characteristics (Sinkeldam et al. Chem. Rev. 2010, 110, 2579-2619). To precisely measure the intensity of the fluorescence emitted by the brightest fluorophores described above, we determined their quantum yield. These measurements were performed in water following the procedure reported by Nighswander-Remper and the results are shown in Table B below. Quantum yield determinations confirmed that 2p and 2q display the highest fluorescence and are 10-fold brighter than any other nucleotide analogues with a compact aryl- or heteroaryl substituent in position 5 that have been reported to date (Sinkeldam et al. Chem. Rev. 2010, 110, 2579-2619). That 2p and 2q absorb and fluoresce at long wavelength is an attractive feature, which makes these fluorophores suitable for analyses in biological environments. Additionally, we found the intensity of the fluorescence emission is conserved for UDP and UTP analogues, thereby providing attractive fluorescence probes candidates for fluorimetric assays.

[2] = Lakowicz, Principles of Fluorescence Spectroscopy; cited from earlier work
a-1.4-GalT = assay: Titration of C-glycosidic fluorophore 2 with GalT and competition with ligands; assay type: binding
[3] = Absorbance and fluorescence spectra of 5-R-UMP analogues; assay type: physicochemical; conditions: for λmax: absorbance
Experimental: UV absorbance spectra were recorded on a PerkinElmer Lambda 25 UV-Vis spectrometer at ambient temperature in FarUV quartz cells (path length 1.0 cm). Fluorescence spectra were recorded on a PerkinElmer LS-45 spectrometer at ambient temperature in a quartz micro fluorescence cell (path length 1.0 cm).

B. taurus α-1,3-GalT [4] = target: T1, B. taurus α-1,3-GalT (Bos taurus, UniProt P14769); assay: Donor kinetics of UDP-Gal derivatives with GalT, HPLC; assay type: biochemical; conditions: MnCl2 20 mM, MOPS pH 7.2, 37° C.
T1 construct: made in house
T1 sequence (P14769 whole entry): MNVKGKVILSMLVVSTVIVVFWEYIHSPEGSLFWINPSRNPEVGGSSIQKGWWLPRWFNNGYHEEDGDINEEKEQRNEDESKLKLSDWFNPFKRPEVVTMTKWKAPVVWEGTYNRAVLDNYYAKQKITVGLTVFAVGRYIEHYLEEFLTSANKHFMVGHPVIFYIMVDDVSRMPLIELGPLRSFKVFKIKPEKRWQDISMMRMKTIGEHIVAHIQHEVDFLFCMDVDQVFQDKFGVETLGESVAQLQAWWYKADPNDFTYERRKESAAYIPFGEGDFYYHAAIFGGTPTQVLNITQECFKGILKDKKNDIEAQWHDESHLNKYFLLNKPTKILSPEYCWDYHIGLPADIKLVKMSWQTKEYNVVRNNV
Experimental: J. Am. Chem. Soc. 122, 261-1269 (2000); Rich, J. R.; Szpacenko, A.; Palcic, M. M. & Bundle, D. R. Glycosyltransferase-Catalyzed Synthesis of Thiooligosaccharides. Angew. Chem. Int. Ed. […] ChemBioChem 9, 1632-1640 (2008). […] (total volume 100 μL, all concentrations are final concentrations). The reactions were stopped by cooling in dry ice. Samples were analysed immediately by HPLC on a PerkinElmer Series 200 machine equipped with a Supelcosil LC-18-T column (5 μm, 25 cm×4.6 mm), a column oven (set to 30° C.), and a diode array detector. Each sample (injection volume 40 μL) was eluted at 1.5 mL/min with a gradient of methanol (10-30%) against 0.5 M phosphate buffer (adjusted to pH 8 with triethylamine). […] Km and vmax values were determined by fitting data points to a Michaelis-Menten curve using GraFit 5.0.10.

[5] = Quantum yield determination of UDP-Gal derivatives 3a-d; assay type: physicochemical
Experimental: To determine quantum yields, for each absorbance and fluorescence spectrum the area under the curve (AUC) was calculated by numerical integration, applying the mid-point rule. For each compound, AUCabs and AUCfluo were then plotted over compound concentration according to AUCabs=A×[conc]+B (equation 1) and AUCfluo=A′×[conc]+B′ (equation 2). […] The quantum yields for reference compounds were used to calculate the general quantum yield φg for each compound 3a-d, according to φg=φref×(A′/A)/(A′/A)ref.

Ggta1 = target: T2, Ggta1 (Bos taurus, UniProt P14769); assay: Variation in fluorescence of 3d and analogues upon incubation with Ggta1; assay type: binding, B. taurus; conditions: various concentrations of Ggta1
T2 construct: made in house
T2 sequence (P14769 whole entry): as above
Experimental: (§1) Fluorescence intensity measurements with 3d were carried out in black NUNC F96 MicroWell polystyrene plates on a BMG labtech PolarStar microplate reader equipped with a 350±5 nm excitation filter and a 430±5 nm emission filter. The number of flashes per wells was set to 50 (gain: 2240; position delay: 0.2 s). Prior to readings, plates were incubated, with shaking, for 10 min at 30° C. (double orbital, shaking width 4 mm, 10 seconds). Results were visualised with BMG labtech data analysis software Mars 1.10 and analysed with GraFit version 5.0.10.
(§2) Samples were pipetted into the requisite wells of a black NUNC 96-well plate as shown in tables E1-E3, at the end of the description. Key: B—Tris/HCl buffer (50 mM, pH 7; 40 μL); F—fluorophore 3d (200 nM in Tris/HCl buffer; 40 μL); M—MnCl2 (10 mM in Tris/HCl buffer; […]); E—galactosyltransferase (in Tris/HCl buffer; 40 μL); I—inhibitor (in Tris/HCl buffer; 40 μL). Total volume/well: 200 μL. All experiments were carried out in triplicate, unless indicated otherwise.
We also carried out an experiment on 3d (numbered 18e in FIG. 4) and different analogues of 3d, namely the nucleoside 5h, the nucleotide 6r and nucleoside diphosphate 22d, to show their variation in fluorescence on binding to Ggta1.
The synthesis of 5h, 6r and 22d are shown below. The protocol for the microplate/fluorescence experiments was the same as in Example 2.

B. taurus α-1,3-GalT [6] = target: T1, B. taurus α-1,3-GalT; assay: Microplate fluorescence titration / ligand-displacement assay with fluorophore 3d; assay type: binding
Experimental: The fluorescence emission of a given fluorophore is influenced by its microenvironment, although different fluorophores vary their fluorescence emissions to different extents on changing microenvironment.
as §1, §2

LgtC (N. meningitidis) = assay: Titration of 3d with other GTs; assay type: binding
Experimental: as §1, §2
(§3) To assess the generality of this new GT assay principle, we next repeated the above experiments with another four GalTs, including mammalian and bacterial enzymes with different acceptor specificities and reaction mechanisms. […] The experimental protocol was the same as in Example 2. The amino acid sequences for four GalTs used in the experiment, i.e. LgtC (N. meningitidis), Ggta1 (B. taurus), GTB (H. sapiens) and AA(Gly)B GTB mutant (H. sapiens) or references where the sequence listings can be found are given above. The amino acid sequence for β4GalT (H. pylori) can be found above and in the following reference: Endo, T., Koizumi, S., Tabata, K. & Ozaki, A. Glycobiology 10, 809-813 (2000).

β4GalT (H. pylori) = assay: Titration of 3d with other GTs; assay type: binding
Experimental: as §1, §2, §3

GTB (H. sapiens) = assay: Titration of 3d with other GTs; assay type: binding
Experimental: as §1, §2, §3

[7] = tested on: AA(Gly)B GTB mutant (H. sapiens); assay: Titration of 3d with other GTs; assay type: binding
Experimental: as §1, §2, §3

[8] = Influence of microenvironment (solvent) on fluorescence of 2q′; assay type: physicochemical
Experimental: Fluorescence intensity measurements were performed in NUNC F96 MicroWell polystyrene plates on a BMG labtech PolarStar plate reader equipped with a 350±5 nm absorbance filter and with a 430±5 nm emission filter. 10 μM solutions of 2q′ were prepared in HPLC grade water, acetonitrile and isopropanol. Sample assays with various solvent mixtures were incubated during 2 minutes at 30° C. prior to fluorescence measurement. Data were analysed with the help of GraFit version 5.0.10.
After identifying intense 5-arylated UMP fluorophores and understanding the origin of their fluorescence we investigated the influence of the microenvironment on the fluorescence signal. In order to generate a variety of microenvironments, we prepared 200 nM solutions of 5-(5-formyl-2-thiophene)-uridine 2q′ (the nucleoside analogue of 2q) in solvents varying in polarity index: (P): water (P=9), acetonitrile (MeCN, P=5.8) and isopropanol (IPA, P=3.9). We subsequently recorded absorbance and fluorescence signals for these three solutions (see FIG. 6).

[9] = target: T3, Streptococcus thermophilus UDP-Gal 4′-epimerase (GalE) (Streptococcus thermophilus, UniProt P21977); assay: GalE-catalysed conversion of UDP-Gal into UDP-Glc, HPLC assay; assay type: biochemical
T3 construct: purchased Calbiochem
T3 sequence (P21977 whole entry): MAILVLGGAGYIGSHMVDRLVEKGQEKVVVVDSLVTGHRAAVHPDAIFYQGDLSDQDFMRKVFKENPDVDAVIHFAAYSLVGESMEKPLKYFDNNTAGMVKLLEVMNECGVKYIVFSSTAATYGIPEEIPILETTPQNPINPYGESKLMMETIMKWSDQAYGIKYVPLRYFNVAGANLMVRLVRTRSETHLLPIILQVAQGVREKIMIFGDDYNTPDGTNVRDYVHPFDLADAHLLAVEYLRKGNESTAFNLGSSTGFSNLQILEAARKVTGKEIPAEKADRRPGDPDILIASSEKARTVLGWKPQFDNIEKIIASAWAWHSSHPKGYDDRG
Experimental: The reactions were stopped by cooling in dry ice. […] Km and vmax values were determined by fitting data points to a Michaelis-Menten curve using GraFit 5.0.10. […] All experiments were carried out in triplicate.

Structure (SMILES): Nc1ccccn1 [2-aminopyridine, reference compound]
Quantum yield of reference compounds determined with this protocol [1]: 0.60 | Quantum yield, literature values of reference compounds [2]: 0.60

Structure (SMILES): O=c1ccn([C@@H]2O[C@H](COP(=O)(O)O)[C@@H](O)[C@H]2O)c(=O)[nH]1 [UMP, reference compound]
Reversal of fluorescence quenching of 2 by titration with ligand (a-1.4-GalT): to a lesser extent | λmax [3]: 262 nm | Q.Y. [1]: 5e-05

Structure (SMILES): O=Cc1ccc(-c2cn([C@@H]3O[C@H](COP(=O)(O)OP(=O)(O)O[C@H]4O[C@H](CO)[C@H](O)[C@H](O)[C@H]4O)[C@@H](O)[C@H]3O)c(=O)[nH]c2=O)s1 [3d, 5-(5-Formylthien-2-yl)-UDP-α-D-galactose]
Km (B. taurus α-1,3-GalT [4]): 13 ± 1 µM | kcat (B. taurus α-1,3-GalT [4]): 0.0019 s⁻¹ | Fluorescence (in words) [5]: much more strongly fluorescent | Quantum yield relative to that of 3a [5]: 25 fold | Quantum yield relative to that of the parent UDP-Gal [5]: ~6000 fold | Quantum yield ([5]; in H2O): 0.26 | Variation in fluorescence on binding to Ggta1 (Ggta1): varied their intensity of luminescence with Ggta1 | Fluorescence of 3d upon titration with enzyme (B. taurus α-1,3-GalT [6]; in the absence of Mn^2+): little or no fluorescence quenching | Fluorescence of 3d upon titration with enzyme (B. taurus α-1,3-GalT [6]; in the presence of MnCl2, 200 nM ligand, Tris pH 7): quenched in the presence of enzyme in a concentration-dependent manner | Fluorescence of 3d with enzyme (LgtC (N. meningitidis)): strong fluorescence quenching effect | Fluorescence of 3d with enzyme (β4GalT (H. pylori)): strong fluorescence quenching effect | Fluorescence of 3d with enzyme (GTB (H. sapiens)): strong fluorescence quenching effect | Fluorescence of 3d with enzyme [7]: strong fluorescence quenching effect

Structure (SMILES): O=c1ccn([C@@H]2O[C@H](COP(=O)(O)OP(=O)(O)O)[C@@H](O)[C@H]2O)c(=O)[nH]1 [UDP, reference compound]
Reversal of fluorescence quenching of 2 by titration with ligand (a-1.4-GalT): reversed | Fluorescence of 3d upon titration with competitive ligand (B. taurus α-1,3-GalT [6]; 3d and α-1.3-GalT present): restored

Structure (SMILES): N[C@@H](Cc1c[nH]c2ccccc12)C(=O)O [L-tryptophan, reference compound]
Quantum yield of reference compounds determined with this protocol [1]: 0.14 | Quantum yield, literature values of reference compounds [2]: 0.14

Fluorescence in water relative to MeCN ([8]; 200 nM solutions): 20 fold
Structure (SMILES): O=Cc1ccc(-c2cn([C@@H]3O[C@H](CO)[C@@H](O)[C@H]3O)c(=O)[nH]c2=O)s1 [2q′, 5-(5-Formylthien-2-yl)-uridine]
Absorbance on change of solvent ([8]; water, MeCN, IPA): unaffected by a change in microenvironment

Structure (SMILES): O=Cc1ccc(-c2cn([C@@H]3O[C@H](COP(=O)(O)OP(=O)(O)CC[C@H]4O[C@H](CO)[C@H](O)[C@H](O)[C@H]4O)[C@@H](O)[C@H]3O)c(=O)[nH]c2=O)s1 [compound 2, Bis(sodium) [2-(α-D-galactopyranosyl)-ethylphosphono]-5-(5-formylthien-2-yl)uridin-5′-yl phosphate]
Fluorescence of 2 upon titration with GalT (a-1.4-GalT): quenched upon titration with a bacterial GalT | Ki ([9]; Dixon plot, 232 μM UDP-Gal): 426 µM | Use as substrate by GalE ([9]; co-incubation, HPLC): does not use 2 as a substrate

Fluo Intensity at 100 μM ([3]; 100 μM): >650 a.u. | λmax [3]: 351 nm | Emmax ([3]; fluorescence emission): 434 nm | Brightness relative to any other reported 5-aryl/heteroaryl nucleotide analogues [1]: 10 fold | Q.Y. [1]: 0.26
Structure (SMILES): O=Cc1ccc(-c2cn([C@@H]3O[C@H](COP(=O)(O)O)[C@@H](O)[C@H]3O)c(=O)[nH]c2=O)s1 [2q, 5-(5-Formylthien-2-yl)-uridine-5′-monophosphate]
Variation in fluorescence on binding to Ggta1 (Ggta1): varied their intensity of luminescence with Ggta1
